For 3 compounds, IC50 results are on record in ChEMBL document CHEMBL1126228, “2,3:18,19-dioxidosqualene: synthesis and activity as a potent inhibitor of 2,3-oxidosqualene-lanosterol cyclase in rat liver microsomes” (Bioorg Med Chem Lett, 1992).

The target in this experiment is T1, Lanosterol synthase (Rattus norvegicus, UniProt P48450).
T1 sequence (P48450 whole entry): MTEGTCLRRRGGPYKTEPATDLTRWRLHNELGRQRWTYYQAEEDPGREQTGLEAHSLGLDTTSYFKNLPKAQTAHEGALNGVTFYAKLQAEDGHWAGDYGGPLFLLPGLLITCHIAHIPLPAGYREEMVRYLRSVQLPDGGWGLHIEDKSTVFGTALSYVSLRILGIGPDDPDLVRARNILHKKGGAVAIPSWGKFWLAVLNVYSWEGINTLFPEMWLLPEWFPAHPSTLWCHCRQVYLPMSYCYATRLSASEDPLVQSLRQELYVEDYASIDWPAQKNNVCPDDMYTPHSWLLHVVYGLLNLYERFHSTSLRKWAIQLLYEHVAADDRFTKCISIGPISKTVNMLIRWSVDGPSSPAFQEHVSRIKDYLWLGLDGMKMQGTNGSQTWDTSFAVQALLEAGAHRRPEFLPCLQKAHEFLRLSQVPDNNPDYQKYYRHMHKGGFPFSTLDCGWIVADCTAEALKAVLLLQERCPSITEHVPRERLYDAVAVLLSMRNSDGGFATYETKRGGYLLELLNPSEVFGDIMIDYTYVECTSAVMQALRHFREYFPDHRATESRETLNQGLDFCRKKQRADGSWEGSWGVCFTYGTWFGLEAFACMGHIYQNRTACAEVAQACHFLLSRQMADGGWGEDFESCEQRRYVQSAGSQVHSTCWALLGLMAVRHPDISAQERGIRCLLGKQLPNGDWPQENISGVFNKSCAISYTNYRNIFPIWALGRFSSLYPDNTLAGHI
Kind of experiment: Compound was evaluated for inhibitory activity against 2,3-oxidosqualene-lanosterol cyclase in rat liver microsomes. Further details: species or system Microsome. On the technique in general: Microsomes from liver hold many membrane-bound enzymes, among them those of drug oxidation.
On to `C/C(=C\CC/C=C(\C)CC/C=C(\C)CCC1OC1(C)C)CC/C=C(\C)CCC1OC1(C)C` (stereo not drawn), for which the IC50 (usually the concentration that gives 50% inhibition) was 142 µM.
In turn, `CC(C)=CCC/C(C)=C/CC/C(C)=C/CC/C=C(\C)CCC1OC1(C)CCC=C(C)C` (stereo not drawn) returned an IC50 of 83.5 µM.
The figure for `CC(C)=CCCC1(C)OC1CC/C(C)=C/CC/C=C(\C)CC/C=C(\C)CCC1OC1(C)C` (stereo not drawn) is 0.11 µM.
